Source: patent US20230265151A1, “GIP/GLP1 CO-AGONIST COMPOUNDS” (priority 2020, published 2023)
Where two headings read alike, the source gives them in different places.

Experiments:
hGIPR = target: T1, hGIPR (Homo sapiens, UniProt P48546); test: Functional cAMP formation (HTRF) in HEK-293 clonal cells expressing hGIPR, 0.1% bovine casein, without or with 1.0% human serum albumin; assay type: cell-based; details: for Emax: read-out: hGIPR Emax, % ± SEM; for EC50: cAMP, 0.1% bovine casein (no human serum albumin), geometric mean, read-out: hGIPR EC50, nM (SEM, n)
T1 construct: expressed in transfected cells
T1 sequence (P48546 22-466): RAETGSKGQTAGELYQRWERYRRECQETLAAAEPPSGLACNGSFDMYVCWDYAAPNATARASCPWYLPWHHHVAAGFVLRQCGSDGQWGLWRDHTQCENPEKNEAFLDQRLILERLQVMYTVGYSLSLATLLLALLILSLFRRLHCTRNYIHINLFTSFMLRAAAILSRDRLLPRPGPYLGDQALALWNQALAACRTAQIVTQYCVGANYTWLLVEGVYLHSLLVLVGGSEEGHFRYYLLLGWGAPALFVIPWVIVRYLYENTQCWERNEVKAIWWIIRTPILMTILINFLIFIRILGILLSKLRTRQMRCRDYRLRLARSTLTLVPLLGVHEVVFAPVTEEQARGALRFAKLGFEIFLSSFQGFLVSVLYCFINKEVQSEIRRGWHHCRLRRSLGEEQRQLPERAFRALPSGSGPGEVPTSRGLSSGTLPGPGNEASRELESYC
How it was run: (§1)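 Readings of the HTRF 665/620 nm ratio, which falls as cAMP rises, were converted to nM cAMP using a standard curve after 30 min peptide exposure at 37° C.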

hGCGR = target: T2, hGCGR (Homo sapiens, UniProt P47871); test: Functional cAMP formation (HTRF) in HEK-293 clonal cells expressing hGCGR, 0.1% bovine casein, without or with 1.0% human serum albumin; assay type: cell-based; details: read-out: hGCGR EC50, nM (SEM, n)
T2 construct: expressed in transfected cells
How it was run: as §1

[1] = target: T3, human GLP-1 receptor (hGLP-1R) (Homo sapiens, UniProt P43220); test: [125I]-GLP-1 binding, SPA with membranes of HEK293 cells expressing hGLP-1R; details: human GLP-1R; geometric mean (SEM, n); read-out: Binding Affinity Ki, nM (SEM, n) hGLP-1R
T3 construct: expressed in transfected cells; crude membranes

hGLP-1R = hGLP-1R (Homo sapiens, UniProt P43220); test: Functional cAMP formation (HTRF) in HEK-293 clonal cells expressing hGLP-1R, 0.1% bovine casein, without or with 1.0% human serum albumin; assay type: cell-based; design: expressed in transfected cells; details: for Emax: percent of maximal response to GLP-1(7-36)NH2, read-out: hGLP-1R Emax, % ± SEM; for EC50: cAMP, read-out: hGLP-1R EC50, nM (SEM, n)
How it was run: as §1

[2] = target: T4, human GIP receptor (hGIPR) (Homo sapiens, UniProt P48546); test: [125I]-GIP binding, SPA with membranes of CHO cells expressing hGIPR; details: human GIPR; geometric mean (SEM, n); read-out: Binding Affinity Ki, nM (SEM, n) hGIPR
T4 construct: expressed in transfected cells; crude membranes
T4 sequence (P48546 22-466): T1 sequence (P48546 22-466)

[3] = HEK293, cAMP, 37° C., 0.1% bovine casein and 1.0% human serum albumin, percent of maximal response to GIP(1-42)NH2
[4] = cAMP, 37° C., 0.1% bovine casein (no human serum albumin), geometric mean
[5] = cAMP, 37° C., 0.1% bovine casein and 1.0% human serum albumin, geometric mean (SEM, n)
[6] = HEK293, cAMP, 37° C., 0.1% bovine casein, arithmetic mean
[7] = 37° C., 0.1% bovine casein (no human serum albumin), geometric mean
[8] = HEK293, 0.1% bovine casein and 1.0% human serum albumin, 37° C., percent of maximal response to GIP(1-42)NH2
[9] = HEK293, cAMP, 37° C., 0.1% bovine casein, percent of maximal response to GIP(1-42)NH2, arithmetic mean
[10] = 0.1% bovine casein and 1.0% human serum albumin, 37° C., geometric mean

T3 sequence (P43220 24-463): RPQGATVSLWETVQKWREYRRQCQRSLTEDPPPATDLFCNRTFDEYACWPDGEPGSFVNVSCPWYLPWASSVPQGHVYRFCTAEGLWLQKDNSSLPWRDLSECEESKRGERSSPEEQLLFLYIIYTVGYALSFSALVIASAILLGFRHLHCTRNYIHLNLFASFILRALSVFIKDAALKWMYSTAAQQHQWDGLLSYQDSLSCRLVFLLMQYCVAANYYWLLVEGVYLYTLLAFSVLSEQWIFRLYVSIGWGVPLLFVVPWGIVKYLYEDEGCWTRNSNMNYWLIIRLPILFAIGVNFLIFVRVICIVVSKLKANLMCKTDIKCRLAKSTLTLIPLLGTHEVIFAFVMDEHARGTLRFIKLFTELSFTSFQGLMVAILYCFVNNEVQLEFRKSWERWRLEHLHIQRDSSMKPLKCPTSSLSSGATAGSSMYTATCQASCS
Sequence of hGLP-1R (P43220 24-463): as above
T2 sequence (P47871 26-477): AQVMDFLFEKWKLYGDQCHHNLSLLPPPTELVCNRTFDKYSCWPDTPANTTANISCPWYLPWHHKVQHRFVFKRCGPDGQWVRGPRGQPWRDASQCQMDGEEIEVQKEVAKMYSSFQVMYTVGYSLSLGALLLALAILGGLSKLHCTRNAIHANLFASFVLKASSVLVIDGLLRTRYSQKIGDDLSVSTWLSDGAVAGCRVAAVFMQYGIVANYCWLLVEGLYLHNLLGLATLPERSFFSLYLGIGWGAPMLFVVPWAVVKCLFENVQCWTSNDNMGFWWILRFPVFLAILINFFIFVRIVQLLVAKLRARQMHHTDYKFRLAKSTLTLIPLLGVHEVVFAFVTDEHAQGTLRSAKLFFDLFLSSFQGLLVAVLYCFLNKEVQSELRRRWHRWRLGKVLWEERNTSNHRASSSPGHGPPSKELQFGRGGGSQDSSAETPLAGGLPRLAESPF

With `CC[C@H](C)[C@H](NC(=O)[C@H](CC(C)C)NC(=O)[C@](C)(Cc1ccc(O)cc1)NC(=O)[C@H](CCCCNC(=O)COCCOCCNC(=O)COCCOCCNC(=O)CC[C@H](NC(=O)CC[C@H](NC(=O)CCCCCCCCCCCCC(=O)O)C(=O)O)C(=O)O)NC(=O)[C@@H](NC(=O)[C@H](Cc1ccccc1)NC(=O)[C@H](CCCN)NC(=O)C(C)(C)NC(=O)[C@H](CCC(N)=O)NC(=O)[C@H](C)NC(=O)[C@H](CCC(N)=O)NC(=O)[C@H](CCCN)NC(=O)[C@H](CC(=O)O)NC(=O)[C@H](CC(C)C)NC(=O)[C@](C)(CC(C)C)NC(=O)[C@@H](NC(=O)C(C)(C)NC(=O)[C@H](Cc1ccncc1)NC(=O)[C@H](CC(=O)O)NC(=O)[C@H](CO)NC(=O)[C@@H](NC(=O)[C@](C)(Cc1ccccc1F)NC(=O)[C@@H](NC(=O)CNC(=O)[C@H](CCC(=O)O)NC(=O)C(C)(C)NC(=O)[C@@H](N)Cc1ccc(O)cc1)[C@@H](C)O)[C@@H](C)O)[C@@H](C)CC)[C@@H](C)CC)C(=O)N[C@@H](CCCCNC(=O)COCCOCCNC(=O)COCCOCCNC(=O)CC[C@H](NC(=O)CC[C@H](NC(=O)CCCCCCCCCCCCC(=O)O)C(=O)O)C(=O)O)C(=O)NCC(=O)NCC(=O)N1CCC[C@H]1C(=O)N[C@@H](CO)C(=O)N[C@@H](CO)C(=O)NCC(=O)N[C@@H](C)C(=O)N1CCC[C@H]1C(=O)N1CCC[C@H]1C(=O)N1CCC[C@H]1C(=O)N[C@@H](CO)C(N)=O` [Example 474] the Emax (hGIPR; [3]) was 85.6%, the EC50 (hGIPR; 37° C.) was 0.0106 nM and the EC50 (hGCGR; [4]) was over 9950 nM. It also gave an EC50 (hGCGR; [5]) of over 9950 nM, a Ki [1] of 0.343 nM and an Emax (hGLP-1R; [6]) of 113%. It also gave an EC50 (hGLP-1R; [7]) of 0.123 nM, an EC50 (hGLP-1R; 37° C., 0.1% bovine casein and 1.0% human serum albumin, geometric mean (SEM, n)) of 1.1 nM and a Ki [2] of 0.0427 nM.

Compound `CCCCCCCCCCCC(=O)N[C@@H](CCC(=O)NCCOCCOCC(=O)NCCOCCOCC(=O)NCCCC[C@H](NC(=O)[C@H](CCCN)NC(=O)[C@H](CC(=O)O)NC(=O)[C@H](CC(C)C)NC(=O)[C@](C)(CC(C)C)NC(=O)[C@@H](NC(=O)[C@H](CO)NC(=O)[C@H](Cc1ccncc1)NC(=O)[C@H](CC(=O)O)NC(=O)[C@H](CO)NC(=O)[C@@H](NC(=O)[C@](C)(Cc1ccccc1F)NC(=O)[C@@H](NC(=O)CNC(=O)[C@H](CCC(=O)O)NC(=O)C(C)(C)NC(=O)[C@@H](N)Cc1ccc(O)cc1)[C@@H](C)O)[C@@H](C)O)[C@@H](C)CC)C(=O)N[C@@H](C)C(=O)N[C@@H](CCC(N)=O)C(=O)NC(C)(C)C(=O)N[C@@H](CCCCNC(=O)COCCOCCNC(=O)COCCOCCNC(=O)CC[C@H](NC(=O)CCCCCCCCCCC)C(=O)O)C(=O)N[C@@H](Cc1ccccc1)C(=O)N[C@H](C(=O)N[C@H](CCC(=O)O)C(=O)N[C@@](C)(Cc1ccc(O)cc1)C(=O)N[C@@H](CC(C)C)C(=O)N[C@H](C(=O)N[C@@H](CCCN)C(=O)NCC(=O)NCC(=O)N1CCC[C@H]1C(=O)N[C@@H](CO)C(=O)N[C@@H](CO)C(=O)NCC(=O)N[C@@H](C)C(=O)N1CCC[C@H]1C(=O)N1CCC[C@H]1C(=O)N1CCC[C@H]1C(=O)N[C@@H](CO)C(N)=O)[C@@H](C)CC)[C@@H](C)CC)C(=O)O` [Example 298] has an Emax (hGIPR; [8]) of 95%, an Emax (hGIPR; [9]) of 97.4% and an EC50 (hGIPR; 37° C.) of 0.0107 nM. For the same compound, the EC50 (hGCGR; [10]) was over 9950 nM, the EC50 (hGCGR; [4]) was over 9950 nM and the Ki [1] was 0.119 nM. It also gave an EC50 (hGLP-1R; [7]) of 0.19 nM and a Ki [2] of 0.0131 nM.

In the case of `CC[C@H](C)[C@H](NC(=O)[C@H](CC(C)C)NC(=O)[C@](C)(Cc1ccc(O)cc1)NC(=O)[C@H](CCCCNC(=O)COCCOCCNC(=O)COCCOCCNC(=O)CC[C@H](NC(=O)CCCCCCCCCCCCC(=O)O)C(=O)O)NC(=O)[C@@H](NC(=O)[C@H](Cc1ccccc1)NC(=O)[C@H](CCCN)NC(=O)C(C)(C)NC(=O)[C@H](CCC(N)=O)NC(=O)[C@H](C)NC(=O)[C@H](CCC(N)=O)NC(=O)[C@H](CCCN)NC(=O)[C@H](CC(=O)O)NC(=O)[C@H](CC(C)C)NC(=O)[C@](C)(CC(C)C)NC(=O)[C@@H](NC(=O)[C@H](CO)NC(=O)[C@H](CCc1ccc(O)cc1)NC(=O)[C@H](CC(=O)O)NC(=O)[C@H](CO)NC(=O)[C@@H](NC(=O)[C@](C)(Cc1ccccc1F)NC(=O)[C@@H](NC(=O)CNC(=O)[C@H](CCC(=O)O)NC(=O)C(C)(C)NC(=O)[C@@H](N)Cc1ccc(O)cc1)[C@@H](C)O)[C@@H](C)O)[C@@H](C)CC)[C@@H](C)CC)C(=O)N[C@@H](CCCCNC(=O)COCCOCCNC(=O)COCCOCCNC(=O)CC[C@H](NC(=O)CCCCCCCCCCCCC(=O)O)C(=O)O)C(=O)NCC(=O)NCC(=O)N1CCC[C@H]1C(=O)N[C@@H](CO)C(=O)N[C@@H](CO)C(=O)NCC(=O)N[C@@H](C)C(=O)N1CCC[C@H]1C(=O)N1CCC[C@H]1C(=O)N1CCC[C@H]1C(=O)N[C@@H](CO)C(N)=O` [Example 491], the Emax (hGIPR; [3]) is reported as 87.5%, the Emax (hGIPR; [9]) is reported as 100% and the EC50 (hGIPR; 37° C.) is reported as 0.0148 nM. It also gave an EC50 (hGCGR; [4]) of over 9950 nM, an EC50 (hGCGR; [5]) of over 9950 nM and a Ki [1] of 0.182 nM. The Emax (hGLP-1R; HEK293, cAMP, 37° C., 0.1% bovine casein and 1.0% human serum albumin) was 105%, the Emax (hGLP-1R; [6]) was 119% and the EC50 (hGLP-1R; [7]) was 0.148 nM. The Ki [2] was 0.0301 nM.

With `CC[C@H](C)[C@H](NC(=O)[C@H](CC(C)C)NC(=O)[C@](C)(Cc1ccc(O)cc1)NC(=O)[C@@H](CCC(=O)O)NC(=O)[C@@H](NC(=O)[C@H](Cc1ccccc1)NC(=O)[C@H](CCC(=O)O)NC(=O)C(C)(C)NC(=O)[C@H](CCC(N)=O)NC(=O)[C@H](C)NC(=O)[C@H](CCCCNC(=O)COCCOCCNC(=O)COCCOCCNC(=O)CC[C@H](NC(=O)CCCCCCCCCCCCC(=O)O)C(=O)O)NC(=O)[C@H](CCCN)NC(=O)[C@H](CC(=O)O)NC(=O)[C@H](CC(C)C)NC(=O)[C@](C)(CC(C)C)NC(=O)[C@@H](NC(=O)[C@H](CO)NC(=O)[C@H](Cc1ccc2ccccc2c1)NC(=O)[C@H](CC(=O)O)NC(=O)[C@H](CO)NC(=O)[C@@H](NC(=O)[C@](C)(Cc1ccccc1F)NC(=O)[C@@H](NC(=O)CNC(=O)[C@H](CCC(=O)O)NC(=O)C(C)(C)NC(=O)[C@@H](N)Cc1ccc(O)cc1)[C@@H](C)O)[C@@H](C)O)[C@@H](C)CC)[C@@H](C)CC)C(=O)N[C@@H](CCC(=O)O)C(=O)NCC(=O)NCC(=O)N[C@@H](CCCCNC(=O)COCCOCCNC(=O)COCCOCCNC(=O)CC[C@H](NC(=O)CCCCCCCCCCCCC(=O)O)C(=O)O)C(=O)N[C@@H](CO)C(=O)N[C@@H](CO)C(=O)NCC(=O)N[C@@H](C)C(=O)N1CCC[C@H]1C(=O)N1CCC[C@H]1C(=O)N1CCC[C@H]1C(=O)N[C@@H](CO)C(N)=O` [Example 57] the Emax (hGIPR; [8]) was 92.1 ± 5.54%, the Emax (hGIPR; HEK293, percent of maximal response to GIP(1-42)NH2, 37° C., 0.1% bovine casein, arithmetic mean) was 91.5 ± 4.94% and the EC50 (hGIPR; incubated at 37° C.) was 0.0135 nM. For the same compound, the EC50 (hGCGR; [10]) was over 9950 nM, the EC50 (hGCGR; cAMP, incubated at 37° C., 0.1% bovine casein (no human serum albumin), geometric mean) was over 9950 nM and the Ki [1] was 4.35 nM. It also gave an Emax (hGLP-1R; HEK293, 0.1% bovine casein and 1.0% human serum albumin, 37° C.) of 114 ± 7.39%, an EC50 (hGLP-1R; incubated at 37° C., 0.1% bovine casein (no human serum albumin), geometric mean) of 0.14 nM and a Ki [2] of 0.297 nM.
